Entries after “also recorded” stand apart in the source; their conditions may differ. Where a name gives a salt, the structure may show the parent alone.
Key:
[1] = in vivo, ip
[2] = tested on: NMRI mice aged 2-3, 6 and 13 months; assay: Water maze learning and memory in young and aged NMRI mice; settings: 2-3 month mice; 1.5 hours; MTC 1 mg/kg i.p.
[3] = tested on: scopolamine-treated NMRI mice; assay: Morris water maze spatial reference memory task, reversal of scopolamine-induced cognitive deficits; assay type: in vivo; settings: for Learning / Thigmotaxis / S-T memory: mg/kg i.p.; for S-T memory: probe 1.5 h
Description: (§1) Female, NMRI mice aged 3-4 months were from Harlan, UK.
Mice were group housed (7-9 per cage) and maintained with light from 7 am-7 pm and experiments carried out in the light phase. […] They were separated into 6 groups to receive drug administrations as follows:
(§2) The injection volume for drugs was 0.2 ml per 30 g animal weight and they were injected intraperitoneally. The doses were as indicated above.
The water maze consisted of a water-filled pool (1.5 m diameter; 20±2° C.) in which a platform submerged 1 cm below water surface was the only means of escape. Mice were released from 4 cardinal sites (South, West, North and East) facing the wall of the pool in random fashion and thus had to acquire spatial knowledge of the exact platform location by spatial mapping procedures using distal cues.
Each animal was given 6 trials/day and was allowed to swim for a maximum time of 60 seconds and stay 30 seconds on the platform. […] An inter-trial interval of 10-20 minutes was given. The animals were trained for 4 consecutive days and received probe trials (free swim for 60 seconds without platform in the pool) approximately 1.5 and 24 hours post-training to test short and long-term memory, respectively. The behaviour of animals was recorded via an overhead camera and data transmitted to the PC for online storage and analysis (EthoVision basic version 3.0.8. Noldus Information Technology, Netherlands).
Probe trial data were analysed by one-way ANOVA and the appropriate post-hoc tests (Bonferroni's multiple comparison test or Newman Keuls) were carried out to determine the source of a significant main effect or interaction. Analyses were performed two-tailed and the null hypothesis was […] at probability levels of 5% (p<0.05). Only terms for reliable differences are mentioned in the text for simplicity.

mice = assay type: in vivo; settings: for highest effective and safe dose: i.p., mice
saline treated NMRI mice = assay: Morris water maze spatial reference memory task, drug given after saline (otherwise unimpaired animals, side-effect profiling); assay type: in vivo; settings: saline then Rivast (0.125), mg/kg i.p.
Description: as §1
Mice were group housed (7-9 per cage) and maintained with light from 7 am-7 pm and experiments carried out in the light phase. There were 82 mice in total, of which 12 were excluded from the study for circling behaviour during the water maze test. They were separated into 6 groups to receive drug administrations as follows:
as §2
Behavioural testing was undertaken using the Morris water maze spatial navigational task (Morris, 1984). […]
Each animal was given 6 trials/day and was allowed to swim for a maximum time of 60 seconds and stay 30 seconds on the platform. […] The behaviour of animals was recorded via an overhead camera and data transmitted to the PC for online storage and analysis (EthoVision basic version 3.0.8. Noldus Information Technology, Netherlands). […]
Behavioural data of acquisition learning were analysed by conventional statistics (Graph Pad Prism version 4.01) using factorial repeated measures analysis of variance (ANOVA) with treatment as between-subject and day/trial as within-subject factor followed by planned comparisons between selected groups. […]

[4] = Brain levels of MTC after administration; settings: post administration
[5] = scopolamine 0.5 mg/kg then rivastigmine 0.5 mg/kg, probe trials
[6] = scopolamine (0.5) then Rivast (0.1)
[7] = scopolamine (0.5) then Rivast (0.125)
[8] = scopolamine (0.5) then Rivast (0.125), listed as Rivast
[9] = scopolamine (0.5) then Rivast (0.25)
[10] = scopolamine (0.5) then Rivast (0.25), listed as Rivast
[11] = scopolamine (0.5) then Rivast (0.5)
[12] = scopolamine (0.5) then Rivast (0.5), listed as Rivast

## CN(C)c1ccc2nc3ccc(N(C)C)cc3[s+]c2c1 [MTC, methyl-thioninium chloride]
[1]
  time of peak brain levels: 30 to 60 min
[2]
  time spent in the target quadrant: no effect
[3]; linear dose-response
  saturation of dose-response relationship for learning and memory formation: about 4 mg/kg
mice
  highest effective and safe dose: 4 mg/kg

## CCN(C)C(=O)Oc1cccc([C@H](C)N(C)C)c1 [rivastigmine, rivastigmine tartrate]
Saline treated NMRI mice
  Learning: did not alter spatial learning
Saline treated NMRI mice; probe 1.5 h
  S-T memory: ↑↓
[3]; administered acutely, scopolamine-treated NMRI mice
  dose required to fully restore spatial learning: > 0.125 mg/kg
[3]; scopolamine 0.5 mg/kg then rivastigmine 0.1 mg/kg
  overall learning between day 1 and 4 (overall reduction in path length): substantial overall improvement
[3]; scopolamine 0.5 mg/kg then rivastigmine 0.5 mg/kg
  thigmotaxis during memory phase: not significantly different from either scopolamine or saline
[3]; scopolamine 0.5 mg/kg then rivastigmine 0.5 mg/kg i.p., by day 4
  logarithmic transform of pathlength (advanced analysis): reverse the deficit
[3]; scopolamine 0.5 mg/kg then rivastigmine 0.5 mg/kg, pooled day 4 and day 5
  proportion of time spent in target quadrant (probe trials): did not reverse
[3]; [5]
  latency (composite parameter, temporal accuracy): no effect at all
  localisation (composite parameter, spatial accuracy): not able to reverse the deficit
[3]; [6]
  Learning: ineffective
  Thigmotaxis: ↓
  S-T memory: ↓
[3]; scopolamine (0.5) then Rivast (0.1), listed as Rivast
  Learning: ↓
[3]; [7]
  Thigmotaxis: ↑
  S-T memory: spatial bias was established
[3]; [8]
  Learning: ↑
  S-T memory: ↑
[3]; scopolamine (0.5) then Rivast (0.125), listed as Rivastigmine
  Learning: fully reversed
[3]; [9]
  Learning: only partial
  Thigmotaxis: ↓
  S-T memory: memory deficit
[3]; [10]
  Learning: ↑↓
  S-T memory: ↓
[3]; [11]
  Thigmotaxis: reversed
  S-T memory: memory deficit
[3]; [12]
  Learning: ↑
  Thigmotaxis: ↑
  S-T memory: ↓
[3]; scopolamine (0.5) then Rivast (0.5), listed as Rivastigmine
  Learning: completely reversed; also recorded: fully reversed
mice; doses of 0.5 and 0.25 mg/kg, in the absence of scopolamine treatment
  adverse effects (motor coordination problems, ataxia, brief episodes of convulsions): severe adverse effects
mice
  highest effective and safe dose: 0.125 mg/kg

## methyl-thioninium chloride [MTC]
[4]
  time at which brain levels are maximal: 1 to 4 h
